# Legend:
# SW1573 cells [1] = test: CyQUANT cell proliferation assay; assay type: cell-based; conditions: Homo sapiens, SW1573, 120 h
# Protocol: (§1) Human NSCLC cell lines, SW1573 and H2122 cells, were obtained from the American Type Culture Collection. Both cell lines carry a KRAS G12C mutation and CDKN2A homozygous deletion. The cell lines were authenticated by short tandem fingerprinting in 2022 and periodically tested to be Mycoplasma-free. H2122 cells were cultured in RPMI-1640 supplemented with 10% fetal bovine serum. SW1573 cells were maintained in DMEM supplemented with 5% FBS. Both cell lines were cultured at 37 °C in a 5% CO2-humidified atmosphere and passaged when they reached 80–90% confluence. Cells were transduced with a lentivirus vector carrying cDNA coding for firefly luciferase and mCherry to generate SW1573-FmC and H2122-FmC for in vivo studies.
# H2122 cells [2] = test: CyQUANT cell proliferation assay; assay type: cell-based, human; conditions: 120 h drug exposure
# Protocol: as §1
# H2122-FmC cells = test: CyQUANT cell proliferation assay, FmC-transduced cells; assay type: cell-based; conditions: Homo sapiens, 120h drug exposure
# Protocol: as §1, with “studies. […]” for “studies.”
# (§2) cell viability of firefly-luciferase and mCherry (FmC)-transduced NSCLC cells.
# (§3) A, Image representing cell line transduction procedures, involving overnight exposure with a lentivirus vector expressing Firefly luciferase and mCherry. B, C, CellTiter-Glo and CyQUANT […]
# (§4) Highest Single Agent model analysis in SW1573-FmC (D) and H2122-FmC (E) cell lines (96h […]
# (§5) HSA synergy and antagonism
# SW1573-FmC cells = test: as above; assay type: cell-based; conditions: Homo sapiens, 120h drug exposure
# Protocol: as §1, with “studies. […]” for “studies.”
# as §2, §3, §4, §5
# [3] = system: phospho-ERK (p-ERK) in SW1573 cells; test: Western blot of phospho-ERK; assay type: cell-based, human; conditions: 48 h, 1,000 nM adagrasib and/or 1,000 nM abemaciclib
# [4] = system: p-Rb (Ser807/811) in H2122 cells; test: Western blot of phospho-Rb; assay type: cell-based, human; conditions: 24 h exposure
# Protocol: (§6) Cells and tissues were lysed in RIPA lysis buffer (Pierce). The protein concentration was measured using Bradford assay (BioRad). Protein lysates were separated by Mini-PROTEAN TGX gel electrophoresis (BioRad) and subsequently transferred to PVDF membranes (BioRad) for immunoblotting analysis. The membrane was blocked with 5% non-fat skim milk in Tris-buffered saline with tween. Incubation in diluted primary antibodies was conducted overnight and diluted horseradish peroxidase-conjugated secondary antibodies were subsequently applied. Immunoreactive bands were detected using ECL substrate reagent (BioRad), and the membrane was developed using a ChemiDoc XRS + system (BioRad). Primary antibodies used were against: phospho-ERK (Cell Signaling Technology (CST), 4370), ERK (CST, 9102), phospho-Rb (Ser807/811, CST, 8516), β-actin (CST, 3700), and vinculin (Millipore Sigma, 05–386).
# [5] = system: p-Rb (Ser807/811) in SW1573 cells; test: Western blot of phospho-Rb; assay type: cell-based, human; conditions: 24 h exposure
# Protocol: as §6
# H2122 cells [6] = test: Flow cytometry cell cycle analysis; assay type: cell-based, human; conditions: 24 h drug exposure
# Protocol: (§7) Cells were harvested, washed with PBS, and fixed in 2% paraformaldehyde. After the samples were prepared for analysis, fixed cells were resuspended in media and incubated with Vybrant DyeCycle Violet stain (ThermoFisher) for 30 min at 37 °C while protected from light. Flow cytometry was conducted using LSR II Cytometer (BD Biosciences) and analysis was done with FlowJo software and the Dean Jett-Fox algorithm.
# SW1573 cells [7] = test: Flow cytometry cell cycle analysis; assay type: cell-based, human; conditions: 24 h drug exposure
# Protocol: as §7
# [8] = system: caspase 3/7 in SW1573 cells; test: Caspase 3/7-Glo cell death assay; assay type: cell-based, human; conditions: 48 h, 1,000 nM adagrasib, 1,000 nM abemaciclib, alone or combined
# Protocol: (§8) For the caspase 3/7 assay, differences in luminescence signals (from control) were determined using One-Way ANOVA. Differences in BLI radiance were tested for statistical significance using the One-Way ANOVA comparison. Statistical comparisons between two groups were considered significant when the adjusted P value was below 0.05 (P < 0.05). Kaplan–Meier analysis and log-rank test were used for the analysis of animal overall survival, comparing the groups.
# [9] = system: H2122-FmC intracranial tumors; test: Intracranial xenograft efficacy study (BLI, survival, body weight); assay type: in vivo, female nude (athymic) mice; conditions: H2122-FmC model
# Protocol: (§9) All the animal studies were conducted in compliance with all applicable regulations and guidelines of the Institutional Animal Care and Use Committee. Six-to-eight-week-old female nude (athymic) mice were obtained from Charles River Laboratory and maintained under pathogen-free conditions, with food and water provided ad libitum. Mice were implanted intracranially with SW1573-FmC (2 × 10^5 in 2 μL serum-free media) or H2122-FmC cells (1.5 × 10^5 in 2 μL serum-free media) in the right striatum region under general anesthesia using stereotactic procedures as previously described. Animal health was monitored daily.
# (§10) Animals were humanely euthanized when > 20% body weight loss or > 15% body weight loss plus neurological signs was noted. Survival data were collected for each group and analyzed using the Kaplan–Meier method. Survival duration by group was tested for statistical significance using the Gehan-Breslow-Wilcoxon test with False Discovery Rate correction. Statistical comparisons were considered significant when the adjusted P value was below 0.05 (P < 0.05).
# (§11) Animals were injected intraperitoneally with luciferin (150 mg/kg, 0.01 mL/g) based on body weight and anesthetized using 1–2% isoflurane in oxygen at 1–2 L/minute. Images were acquired beginning at 7 min after luciferin injection for three time points (7, 15, and 30 min). Region of interest (ROI) analysis was completed on BLI images using AURA software (Spectral Instrument Imaging). BLI images were generated by overlaying BLI signals for each animal onto their respective white-light images for anatomic reference. Brain ROIs were generated using a fixed area circle and were placed based on the BLI signal in the relevant area, using the photographic anatomical reference images. BLI signals in images were scaled in units of radiance (photons per second per […] per steradian). Prism 9 software (Graph Pad) was used to generate relevant plots based on the in vivo quantification.
# as §8
# [10] = system: SW1573-FmC intracranial tumors; test: as above; assay type: in vivo, female nude (athymic) mice; conditions: SW1573-FmC model
# Protocol: as §9, §10, §11, §8
# [11] = system: SW1573-FmC intracranial tumors; test: Pharmacodynamic immunohistochemistry of brain tumors; assay type: in vivo, mice; conditions: SW1573-FmC xenograft, 3 days treatment
# From the text: Formalin-fixed paraffin-embedded Sects. (7-μm thickness) were subjected to immunohistochemistry according to the methods described previously. Primary antibodies used included those directed at: p-ERK (CST), p-Rb (CST), Ki67 (Dako, MIB1) and Cleaved caspase 3 (CST, 9661). Immuno-positive cells and negative cells within tumor tissues were counted and the fraction of positive cells determined.
# human p-gp = human p-gp ref 6, 34; cited from earlier work
# [12] = clinically ref 23; cited from earlier work
# human CYP3A4 = conditions: cited from earlier work
# [13] = Pharmacokinetic study, plasma and brain concentration by LC-MS/MS; conditions: H2122-FmC and SW1573-FmC tumor-bearing mice, oral adagrasib 75 mg/kg BID or abemaciclib 50 mg/kg QD for three days, 1 h after last dose
# [14] = parameters: method as in PMID 31658955; conditions: cited from earlier work
# [15] = system: progressive BM with CDK pathway alterations; conditions: patients with progressive BM with CDK pathway alterations ref 21; cited from earlier work
structure (smiles),measurement,setting,value
CCN1CCN(Cc2ccc(Nc3ncc(F)c(-c4cc(F)c5nc(C)n(C(C)C)c5c4)n3)nc2)CC1 [abemaciclib],IC50,SW1573 cells [1]; 120-h drug exposure,1000 nM
same,IC50,SW1573 cells [1]; 120 h drug exposure,833 nM
same,IC50,H2122 cells [2],626 nM
same,IC50,"H2122 cells [2]; Homo sapiens, NCI-H2122, 120 h",600 nM
same,IC50,H2122-FmC cells,518 nM
same,IC50,SW1573-FmC cells,1000 nM
same,"Effect on p-ERK (immunoblot, co-treatment experiment)",[3],modestly suppressed p-ERK
same,"Effect on p-Rb (Ser807 and Ser811, immunoblot)",[4],dose-dependent inhibition of p-Rb
same,"Effect on p-Rb (Ser807 and Ser811, immunoblot)",[5],dose-dependent inhibition of p-Rb
same,Effect on cell cycle phase fractions,H2122 cells [6],significantly increased the fraction of G1 phase and decreased the fractions of S and G2 phases
same,Effect on cell cycle phase fractions,SW1573 cells [7],significantly increased the fraction of G1 phase and decreased the fractions of S and G2 phases
same,Caspase 3/7 activity,[8],did not significantly provoke activation of caspase 3/7
same,Animal survival (Kaplan–Meier) vs control,"[9]; 5-week treatment, adagrasib 75 mg/kg BID, abemaciclib 50 mg/kg QD",no survival efficacy
same,BLI post-treatment signals vs control,"[9]; day 40, no statistical significance",signals comparable to the control
same,Overall survival (Kaplan–Meier),"[10]; 5-week treatment, animals with pre-treatment spinal disease excluded",did not show survival benefit
same,"Overall survival (Kaplan–Meier), all animals included","[10]; comparison of the groups, including animals with spinal disease",No statistical significance
same,BLI signal intensity (radiance) vs vehicle,"[10]; day 40, adagrasib 75 mg/kg BID, abemaciclib 50 mg/kg QD, animals with pre-treatment spinal disease excluded","lower average BLI compared to the vehicle, without statistical significance"
same,Cleaved caspase 3 (C-Cas3) positivity in tumor (IHC),[11],very few C-Cas3 positive cells
same,p-ERK-positive cells in tumor (IHC),[11],decreased p-ERK-positive cells
same,p-Rb-positive cells in tumor (IHC),[11],modestly decreased P-Rb immunopositivity
same,P-gp-mediated efflux interaction,human p-gp,substrates and inhibitors of human p-gp-mediated efflux
same,CSF versus plasma concentrations,[12],comparable concentrations in the CSF and plasma
same,CYP3A4 interaction,human CYP3A4,substrate of CYP3A4
same,Concentration in brain,[13],200 to 300 ng/mL
same,Concentration in plasma,[13],290 to 400 ng/mL
C=C(F)C(=O)N1CCN(c2nc(OC[C@@H]3CCCN3C)nc3c2CCN(c2cccc4cccc(Cl)c24)C3)C[C@@H]1CC#N [adagrasib],Cleaved caspase 3 (C-Cas3) positivity in tumor (IHC),[11],trend of increased positivity
same,p-ERK-positive cells in tumor (IHC),[11],decrease of p-ERK-positive cells
same,p-Rb-positive cells in tumor (IHC),[11],decreased p-Rb-positive cells
same,Half-life,[14],24 h
same,P-gp-mediated efflux interaction,human p-gp,substrates and inhibitors of human p-gp-mediated efflux
same,CYP3A4 interaction,human CYP3A4,time-dependent inhibition of human CYP3A4
CC(=O)c1c(C)c2cnc(Nc3ccc(N4CCNCC4)cn3)nc2n(C2CCCC2)c1=O [palbociclib],Intracranial activity in patients,[15],demonstrated intracranial activity
